Key:
[1] = target: T1, STAT3 (Homo sapiens, UniProt P40763); test: Fluorescence polarization assay, STAT3 binding; conditions: FIG. 1
[2] = target: T1, STAT3; test: Quantitation of STAT3 degradation in A549 cells by Western blot; format: cell-based; set-up: expressed in transfected cells; host or cells: A549; conditions: read-out: A549 DC50, 24 hours, tested up to 30 μM or 10 μM
Method in brief: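 A549 cells treated 24 h at 37° C with compound at 30, 10, 3, 1, 0.3 μM or DMSO; RIPA lysates analysed by SDS-PAGE/Western blot for total STAT3, β-actin as loading control, LI-COR fluorescence read-out. DC50 derived by sigmoidal fit of dose-dependent degradation.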

[3] = tested on: ternary complex; test: AlphaLISA assay of ternary complex formation (FIG. 2A); format: binding
[4] = tested on: STAT3-degrader-E3 ligase ternary complex; test: AlphaLISA assays, ternary complex formation and STAT3 ubiquitination; format: biochemical; conditions: FIG. 2
[5] = target: T1, STAT3; test: STAT3 ubiquitination in A549 lysates (FIG. 2B); format: cell-based; set-up: expressed in transfected cells; host or cells: A549
[6] = tested on: E3 ligase; test: Fluorescence polarization assay, E3 ligase binding; conditions: FIG. 1
[7] = tested on: A3/KAW cells; test: CellTiter-Glo cell viability, A3/KAW; format: cell-based; conditions: DLBCL
[8] = target: mutant STAT3 (Homo sapiens, UniProt P40763, D661Y); test: STAT3 MSD assay, mutant STAT3 cell lines; format: cell-based; conditions: read-out: DC50, mutant STAT3; mutant STAT3 heme cell lines, FIG. 9
Experimental: 100 nl of compounds were added into the intermediate plate with Echo (Labcyte 550) from source plate containing a 3-fold serial dilution from top concentration of 1 mM. Cells were seeded into 96-well plates (4×10^4 cells/well/100 ul media), mixed well, and incubated for 24 hours. The media was aspirated from the cultures and 60 μL pre-chilled PIPA lysis buffer (Boston BioProducts BP-115D) with protease/phosphatase inhibitor (Roche 05892791001/Roche 04906837001) was added into the well to lyze the cells for 20 minutes at 4° C. The MSD plate (L15XA) was coated with 2 ug/ml capture antibody (ab119352) in PBS and incubated at 4° C. overnight. The next day, the plate was washed three times with TBST (CST #99975), 150 μL/well. MSD plates were blocked with 150 μL blocking buffer per well and shaken for 1 hr at RT and 600 rpm. The blocking buffer was 3% Blocker A (MSD, R93BA-4) in TBST. The MSD plate was washed three times with 150 μL/well of TBST and 70 μL cell lysate was added into the well and shaken for 1 hour at RT and 600 rpm. […] The MSD plate washed three times with 150 μL/well of TBST and added 150 μL/well of 2×MSD reading buffer diluted from 4× (MSD, R92TC-2) with water. Lastly the MSD instrument was read.

[9] = target: T2, mutant STAT3 (STAT D661Y) (Homo sapiens, UniProt P40763, D661Y); test: degradation of mutant STAT3 in HDLM-2 cell lines, dose response; format: cell-based; conditions: dose response curve
T2 construct: endogenous in cells; host or cells: HDLM-2
T2 sequence (P40763 whole entry D661Y): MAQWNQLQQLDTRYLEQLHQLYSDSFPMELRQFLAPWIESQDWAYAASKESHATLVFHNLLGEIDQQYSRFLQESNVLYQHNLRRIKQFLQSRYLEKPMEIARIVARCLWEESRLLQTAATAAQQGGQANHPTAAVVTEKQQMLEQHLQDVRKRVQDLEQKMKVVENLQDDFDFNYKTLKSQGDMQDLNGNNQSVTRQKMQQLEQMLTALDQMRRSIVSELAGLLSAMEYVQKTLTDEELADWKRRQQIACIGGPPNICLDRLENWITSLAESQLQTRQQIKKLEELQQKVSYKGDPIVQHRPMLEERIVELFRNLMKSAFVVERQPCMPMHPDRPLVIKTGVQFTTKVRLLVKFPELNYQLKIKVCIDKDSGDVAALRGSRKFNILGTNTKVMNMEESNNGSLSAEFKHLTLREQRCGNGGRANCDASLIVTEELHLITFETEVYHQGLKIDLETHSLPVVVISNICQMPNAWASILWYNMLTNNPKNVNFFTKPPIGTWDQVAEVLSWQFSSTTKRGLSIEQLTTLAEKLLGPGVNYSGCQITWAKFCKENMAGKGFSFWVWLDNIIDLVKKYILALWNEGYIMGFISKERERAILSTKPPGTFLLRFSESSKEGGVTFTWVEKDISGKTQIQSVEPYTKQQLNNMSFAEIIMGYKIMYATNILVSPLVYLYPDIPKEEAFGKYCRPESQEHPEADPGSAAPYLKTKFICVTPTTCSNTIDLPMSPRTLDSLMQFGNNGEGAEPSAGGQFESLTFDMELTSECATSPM

T1 sequence (P40763 whole entry): as the sequence (P40763 whole entry D661Y) above, with Y661D counted along it
Sequence of mutant STAT3 (P40763 2-770 D661Y): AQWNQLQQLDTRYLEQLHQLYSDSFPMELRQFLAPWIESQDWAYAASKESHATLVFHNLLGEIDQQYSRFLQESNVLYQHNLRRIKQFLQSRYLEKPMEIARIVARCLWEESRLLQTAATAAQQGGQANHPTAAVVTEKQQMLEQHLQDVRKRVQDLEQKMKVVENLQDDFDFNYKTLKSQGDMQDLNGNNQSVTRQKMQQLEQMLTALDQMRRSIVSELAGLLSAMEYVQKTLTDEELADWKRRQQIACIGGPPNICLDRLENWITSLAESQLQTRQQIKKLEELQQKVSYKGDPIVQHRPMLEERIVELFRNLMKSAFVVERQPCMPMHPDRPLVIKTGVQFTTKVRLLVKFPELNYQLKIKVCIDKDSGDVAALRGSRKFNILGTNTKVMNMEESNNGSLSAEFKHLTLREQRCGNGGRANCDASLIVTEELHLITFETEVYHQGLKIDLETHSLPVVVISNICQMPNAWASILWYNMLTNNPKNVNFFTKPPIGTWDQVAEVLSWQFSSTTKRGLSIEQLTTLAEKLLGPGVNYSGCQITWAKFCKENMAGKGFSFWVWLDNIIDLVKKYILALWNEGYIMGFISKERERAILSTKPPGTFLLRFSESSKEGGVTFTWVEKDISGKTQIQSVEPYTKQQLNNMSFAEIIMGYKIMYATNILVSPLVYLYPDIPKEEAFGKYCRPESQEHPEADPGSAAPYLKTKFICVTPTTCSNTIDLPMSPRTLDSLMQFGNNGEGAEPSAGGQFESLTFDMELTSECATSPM

SMILES | binding to STAT3 [1] | DC50 [2] [nM] | ternary complex formation [3] | STAT3 ubiquitination [4] | formation of the STAT3-degrader-E3 ligase ternary complex [4] | STAT3 ubiquitination [5] | binding to E3 ligase [6] | IC50 ([7]; 96 h, Day 4, read-out: CTG, IC50 μM, Day 4) [µM] | CTG (% Max inh), Day 4 [7] | DC50 [8] [nM] | degradation of mutant STAT3 (STAT D661Y) [9]
C/C(=C\C(=O)N[C@H]1CCc2cccc3c2N(C1=O)[C@H](C(=O)N[C@@H](CCC(N)=O)[C@@H](C)OCc1ccc(CCCCC(=O)N[C@H](C(=O)N2C[C@H](O)C[C@H]2C(=O)NCc2ccc(-c4scnc4C)cc2)C(C)(C)C)cc1)C3)c1ccc(C(F)(F)P(=O)(O)O)cc1 [Compound I-1, [4-[(1E)-1-[[(2S,11S)-2-[[(3S,4R)-1-carbamoyl-4-[[4-(4-[[(2S)-1-[(2S,4R)-4-hydroxy-2-([[4-(4-methyl-1,3-thiazol-5-yl)phenyl]methyl]carbamoyl)pyrrolidin-1-yl]-3,3-dimethyl-1-oxobutan-2-yl]carbamoyl]butyl)phenyl]methoxy]pentan-3-yl]carbamoyl]-12-oxo-1-azatricyclo[6.4.1.0^[4,13]]trideca-4(13),5,7-trien-11-yl]carbamoyl]prop-1-en-2-yl]phenyl]difluoromethylphosphonic acid] | binds | < 30000 | efficient ternary complex formation | promotes | promotes the formation of the STAT3-degrader-E3 ligase ternary complex | STAT3 ubiquitination | binds | – | – | – | –
NC(=O)CC[C@H](NC(=O)[C@@H]1CC[C@@H]2CCN(C(=O)CCCCCC#Cc3cccc4c3CN(C3CCC(=O)NC3=O)C4=O)C[C@H](NC(=O)c3cc4cc(C(=O)P(=O)(O)O)ccc4[nH]3)C(=O)N21)C(=O)NC(c1ccccc1)c1ccccc1 (stereo partly drawn) [Compound I-111, diammonium 2-[[(5S,8S,10aR)-8-[[(1S)-3-carbamoyl-1-(diphenylmethylcarbamoyl)propyl]carbamoyl]-3-[8-[2-(2,6-dioxopiperidin-3-yl)-1-oxo-3H-isoindol-4-yl]oct-7-ynoyl]-6-oxo-octahydropyrrolo[1,2-a][1,5]diazocin-5-yl]carbamoyl]-1H-indole-5-carbonylphosphonate] | – | < 30000 | – | – | – | – | – | 1.9 | (50-55) % | 68 | degrading mutant STAT3

Source: patent US12077555B2, “STAT degraders and uses thereof” (Kymera Therapeutics, Inc., priority 2019, dated 2024)
